ChEMBL document CHEMBL1201862, “PubChem BioAssay data set” (2004)
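How tested: cells in 96-well plates exposed to compound for 48 hours at five concentrations. GI50 = concentration required for 50% inhibition of growth.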 The source made the active and inactive calls. Cut-off read from the data, not from the text of the source: active = GI50 up to about 1.1 µM and inactive = higher.

What was measured:
Assay in all cases: DTP human tumour cell line panel, 48 h
[1] = tested on: HOP-92
[2] = tested on: SK-OV-3
[3] = tested on: NCI-H226
[4] = tested on: U-251
[5] = tested on: SNB-75
[6] = tested on: COLO 205
[7] = tested on: DU-145
[8] = tested on: HCC 2998
[9] = tested on: UO-31
[10] = tested on: SW-620
[11] = tested on: Hs-578T
[12] = tested on: RPMI-8226
[13] = tested on: SR
[14] = tested on: OVCAR-5
[15] = tested on: ACHN
[16] = tested on: A549
[17] = tested on: NCI-H522
[18] = tested on: SK-MEL-28
[19] = tested on: M14

| SMILES | GI50 [1] | GI50 [2] | GI50 [3] | GI50 [4] | GI50 [5] | GI50 [6] | GI50 [7] | GI50 [8] | GI50 [9] | GI50 [10] | GI50 [11] | GI50 [12] | GI50 [13] | GI50 [14] | GI50 [15] | GI50 [16] | GI50 [17] | GI50 [18] | GI50 [19] |
| --- | --- | --- | --- | --- | --- | --- | --- | --- | --- | --- | --- | --- | --- | --- | --- | --- | --- | --- | --- |
| COc1ccc(N2C(=O)C3c4[nH]c5cccc(Cl)c5c4C4CCC(C(C)(C)C)CC4C3C2=O)cc1 (stereo not given) | 83.2 µM (inactive) | 64.9 µM (inactive) | > 100 µM (inactive) | 39.2 µM (inactive) | 19.1 µM (inactive) | > 100 µM (inactive) | > 100 µM (inactive) | > 100 µM (inactive) | > 100 µM (inactive) | > 100 µM (inactive) | 21.9 µM (inactive) | > 100 µM (inactive) | 8.47 µM (inactive) | > 100 µM (inactive) | > 100 µM (inactive) | > 100 µM (inactive) | > 100 µM (inactive) | > 100 µM (inactive) | > 100 µM (inactive) |
| O=C1CSC(c2ccccc2[N+](=O)[O-])N1c1ccc(-c2ccc(-n3c(-c4ccccc4)nc4ccccc4c3=O)cc2)cc1 (stereo not given) | 46.6 µM (inactive) | > 100 µM (inactive) | > 100 µM (inactive) | 42.6 µM (inactive) | 18.4 µM (inactive) | > 100 µM (inactive) | > 100 µM (inactive) | > 100 µM (inactive) | 29.9 µM (inactive) | 36.4 µM (inactive) | > 100 µM (inactive) | 90.2 µM (inactive) | 44.6 µM (inactive) | 71.3 µM (inactive) | > 100 µM (inactive) | > 100 µM (inactive) | > 100 µM (inactive) | > 100 µM (inactive) | > 100 µM (inactive) |
| CCOC(=O)/C(C#N)=C1\c2c([nH]c(=S)[nH]c2=O)Oc2ccc3ccccc3c21 | 43.5 µM (inactive) | 44.9 µM (inactive) | 18 µM (inactive) | 23.7 µM (inactive) | 23.3 µM (inactive) | 19.5 µM (inactive) | 78.9 µM (inactive) | 59.4 µM (inactive) | 20 µM (inactive) | 4.06 µM (inactive) | 76.6 µM (inactive) | 33 µM (inactive) | 49.1 µM (inactive) | > 100 µM (inactive) | 28.8 µM (inactive) | 1.67 µM (inactive) | 19 µM (inactive) | 1.46 µM (inactive) | 43.8 µM (inactive) |
| O=c1c(-c2c(-c3ccccc3)oc3ccc(Cl)cc3c2=O)c(-c2ccccc2)oc2ccc(Cl)cc12 | > 59.7 µM (inactive) | > 51.4 µM (inactive) | > 100 µM (inactive) | > 100 µM (inactive) | > 44.1 µM (inactive) | > 100 µM (inactive) | > 100 µM (inactive) | > 100 µM (inactive) | – | > 100 µM (inactive) | > 49.8 µM (inactive) | > 100 µM (inactive) | > 100 µM (inactive) | > 100 µM (inactive) | > 75.9 µM (inactive) | – | > 100 µM (inactive) | > 100 µM (inactive) | > 100 µM (inactive) |
| CC12CC1C(c1cccc([N+](=O)[O-])c1)(c1cccc([N+](=O)[O-])c1)N=N2 (stereo not given) | 14.1 µM (inactive) | > 100 µM (inactive) | 25.3 µM (inactive) | 18.7 µM (inactive) | 24.6 µM (inactive) | 21.6 µM (inactive) | 24.3 µM (inactive) | 34.5 µM (inactive) | 10.8 µM (inactive) | 23.2 µM (inactive) | 21.9 µM (inactive) | 2.96 µM (inactive) | 19.6 µM (inactive) | 53.3 µM (inactive) | 15.8 µM (inactive) | 54.7 µM (inactive) | 6.7 µM (inactive) | 22.1 µM (inactive) | 38.9 µM (inactive) |
| CC(C)=CCC/C(C)=C\CC/C(C)=C/CO | 10.5 µM (inactive) | – | 36.4 µM (inactive) | 17.6 µM (inactive) | 31.9 µM (inactive) | 40.1 µM (inactive) | 27.1 µM (inactive) | 22.6 µM (inactive) | 22.5 µM (inactive) | 85.9 µM (inactive) | 28.8 µM (inactive) | 14.7 µM (inactive) | 21.4 µM (inactive) | > 100 µM (inactive) | 22.4 µM (inactive) | > 100 µM (inactive) | 14.2 µM (inactive) | 44.9 µM (inactive) | 16.5 µM (inactive) |
| [N-]=[N+]=Nc1cc(=O)[nH]nc1-c1ccccc1 | > 100 µM (inactive) | > 100 µM (inactive) | > 100 µM (inactive) | > 100 µM (inactive) | 61.4 µM (inactive) | > 100 µM (inactive) | > 100 µM (inactive) | > 100 µM (inactive) | > 100 µM (inactive) | > 100 µM (inactive) | > 100 µM (inactive) | > 100 µM (inactive) | > 100 µM (inactive) | – | > 100 µM (inactive) | > 100 µM (inactive) | > 100 µM (inactive) | > 100 µM (inactive) | > 100 µM (inactive) |
| CSC1=NN=C(SC)NN1 | 0.173 µM (active) | 0.186 µM (active) | 0.181 µM (active) | 0.18 µM (active) | – | 0.198 µM (active) | 0.202 µM (active) | 0.378 µM (active) | 0.188 µM (active) | 0.17 µM (active) | 0.161 µM (active) | 0.261 µM (active) | 0.0204 µM (active) | 0.179 µM (active) | 0.168 µM (active) | 0.204 µM (active) | 0.214 µM (active) | 0.186 µM (active) | 0.184 µM (active) |
| C=C1C[C@@H](O)[C@@H](Br)C(C)(C)[C@@]12C=CC(=O)CC2 | > 100 µM (inactive) | > 100 µM (inactive) | – | > 100 µM (inactive) | > 63.2 µM (inactive) | 1.77 µM (inactive) | > 100 µM (inactive) | > 78.7 µM (inactive) | > 96.4 µM (inactive) | > 100 µM (inactive) | > 100 µM (inactive) | > 100 µM (inactive) | > 100 µM (inactive) | 3.18 µM (inactive) | > 100 µM (inactive) | > 100 µM (inactive) | > 100 µM (inactive) | > 100 µM (inactive) | > 100 µM (inactive) |
| COC(=O)c1cccc(C)c1C1CN=NC12Cc1c(ccc(C)c1C)C2=O (stereo not given) | 38.4 µM (inactive) | – | 81.8 µM (inactive) | 56 µM (inactive) | 51.5 µM (inactive) | – | 64.1 µM (inactive) | 40.4 µM (inactive) | > 100 µM (inactive) | 29.5 µM (inactive) | 27.4 µM (inactive) | 17.3 µM (inactive) | 21.3 µM (inactive) | > 100 µM (inactive) | 34.4 µM (inactive) | 40.6 µM (inactive) | 15.8 µM (inactive) | 50 µM (inactive) | 45.3 µM (inactive) |
| COC(=O)[C@@H](COC(=O)/C=C/c1ccc(OC(C)=O)c(OC(C)=O)c1)NC(=O)/C=C/c1ccc(OC(C)=O)c(OC(C)=O)c1 | 32.7 µM (inactive) | 55.5 µM (inactive) | 35.6 µM (inactive) | 33.7 µM (inactive) | 20.9 µM (inactive) | 15.7 µM (inactive) | 22.8 µM (inactive) | 21.8 µM (inactive) | – | 33.3 µM (inactive) | 25.2 µM (inactive) | 38.2 µM (inactive) | 8.49 µM (inactive) | 45.8 µM (inactive) | 32.2 µM (inactive) | 42.8 µM (inactive) | 13.2 µM (inactive) | 70.8 µM (inactive) | 14.6 µM (inactive) |
| CC(=O)OCC1OC(n2c(=O)[nH]c(=O)c3sccc32)C(Br)C1OC(C)=O (stereo not given) | > 100 µM (inactive) | – | > 100 µM (inactive) | > 100 µM (inactive) | > 100 µM (inactive) | > 100 µM (inactive) | > 100 µM (inactive) | > 100 µM (inactive) | > 100 µM (inactive) | > 100 µM (inactive) | > 100 µM (inactive) | > 100 µM (inactive) | > 100 µM (inactive) | > 100 µM (inactive) | > 100 µM (inactive) | > 100 µM (inactive) | > 100 µM (inactive) | > 100 µM (inactive) | > 100 µM (inactive) |
| Cn1cc2c3ccccc3nc-2c2ccccc21 [ISOCRYPTOLEPINE] | 1.91 µM (inactive) | 1.99 µM (inactive) | – | 2.42 µM (inactive) | 1.8 µM (inactive) | 1.46 µM (inactive) | 2.31 µM (inactive) | 1.6 µM (inactive) | 1.4 µM (inactive) | 1.12 µM (inactive) | 2.3 µM (inactive) | 1.53 µM (inactive) | 0.397 µM (active) | 2.14 µM (inactive) | 1.71 µM (inactive) | 2.17 µM (inactive) | 1.41 µM (inactive) | 2.38 µM (inactive) | 1.63 µM (inactive) |
| COc1ccc(OC)c2sc(N3C(=O)/C(=C/c4ccc(SC)cc4)N=C3c3ccccc3)nc12 | 55.7 µM (inactive) | 30.5 µM (inactive) | – | 17.5 µM (inactive) | 18.3 µM (inactive) | 58.5 µM (inactive) | 39.9 µM (inactive) | 71.4 µM (inactive) | 24.2 µM (inactive) | 27.4 µM (inactive) | 17.7 µM (inactive) | 13.3 µM (inactive) | 26.4 µM (inactive) | 47.3 µM (inactive) | 28.9 µM (inactive) | 22.2 µM (inactive) | – | > 100 µM (inactive) | 21.2 µM (inactive) |
| CCOC(=O)c1cc2c([nH]1)c(OC(C)=O)cc1c2ccn1Cc1ccccc1 | > 100 µM (inactive) | > 100 µM (inactive) | > 100 µM (inactive) | > 100 µM (inactive) | > 100 µM (inactive) | > 100 µM (inactive) | > 100 µM (inactive) | > 100 µM (inactive) | > 100 µM (inactive) | > 100 µM (inactive) | > 100 µM (inactive) | > 100 µM (inactive) | > 100 µM (inactive) | > 100 µM (inactive) | – | > 100 µM (inactive) | – | > 100 µM (inactive) | > 100 µM (inactive) |
